Reference: patent US20060013794A1, “Cosmetic or pharmaceutical composition comprising peptides with the sequences arggly-ser” (priority 2002, published 2006)
Where a SMILES comes first, the peptide text is derived from it.

System: HaCat human keratinocytes
Experiment: Cell differentiation, immunofluorescence with anti-ERG 1-2 antibodies
Format: cell-based
Conditions: at 24 hours

Q: With `N=C(N)NCCC[C@H](N)C(=O)NCC(=O)N[C@@H](CO)C(=O)O` [Arg-Gly-Ser] (H-Arg-Gly-Ser-OH) as the compound, how does the “quantity of ERG molecules present in the cells (fluorescence intensity, cell differentiation marker)” value read?
A: increases
